Among the data in patent US11318137B2, “Quinazoline compounds as modulators of Ras signaling” (VANDERBILT UNIVERSITY, priority 2017, dated 2022) are IC50, EC50 and Ki values, retold here.

Assay [1] concerns H727 lung cancer cell lines, which contain a G12V K-Ras mutation. As to the kind of experiment: Inhibition of cancer cell proliferation (CellTiter-Glo, 3 days). It counts as cell-based. Particulars: Homo sapiens, NCI-H727, 72 h, H727 cells, 3 days at 37° C., normalized to DMSO control, read-out: Cell proliferation activity (H727 cancer cell line proliferation IC50). Here is the method: C. Inhibition of Cancer Cell Proliferation
Compounds of the present invention were measured for their ability to kill H727 lung cancer cell lines, which contain a G12V K-Ras mutation. Cell proliferation experiments were conducted in 96-well plates. Cells were plated at 1000 cells/well, incubated overnight, followed by treatment with a dose range of compound for 3 days at 37° C. Cell proliferation was assessed using a CellTiter-Glo assay (Promega) according to the manufacturer's protocol. Data were normalized to DMSO control. IC50 values were determined using a four-parameter dose-response (variable slope) equation. These assays are performed in a manner analogous to the assay disclosed in: Burns, M. C.; Sun, Q.; Daniels, R. N.; Camper, D. V.; Kennedy, J. P.; Phan, J.; Olejniczak, E. O.; Lee, T.; Waterson, A. G.; Rossanese, O. W.; Fesik, S. W. “Approach for targeting Ras with small molecules that activate SOS-mediated nucleotide exchange” Proc. Natl. Acad. Sci. 2014; 11(9): 3401-3406. PMCID: PMC3948241.
Background: In ATP-based viability assays light output follows the ATP content of the culture.

Assay [2] has as its target T1, SOS-mediated nucleotide exchange on Ras (Homo sapiens, UniProt Q07889).
T1 sequence (Q07889 1-1333): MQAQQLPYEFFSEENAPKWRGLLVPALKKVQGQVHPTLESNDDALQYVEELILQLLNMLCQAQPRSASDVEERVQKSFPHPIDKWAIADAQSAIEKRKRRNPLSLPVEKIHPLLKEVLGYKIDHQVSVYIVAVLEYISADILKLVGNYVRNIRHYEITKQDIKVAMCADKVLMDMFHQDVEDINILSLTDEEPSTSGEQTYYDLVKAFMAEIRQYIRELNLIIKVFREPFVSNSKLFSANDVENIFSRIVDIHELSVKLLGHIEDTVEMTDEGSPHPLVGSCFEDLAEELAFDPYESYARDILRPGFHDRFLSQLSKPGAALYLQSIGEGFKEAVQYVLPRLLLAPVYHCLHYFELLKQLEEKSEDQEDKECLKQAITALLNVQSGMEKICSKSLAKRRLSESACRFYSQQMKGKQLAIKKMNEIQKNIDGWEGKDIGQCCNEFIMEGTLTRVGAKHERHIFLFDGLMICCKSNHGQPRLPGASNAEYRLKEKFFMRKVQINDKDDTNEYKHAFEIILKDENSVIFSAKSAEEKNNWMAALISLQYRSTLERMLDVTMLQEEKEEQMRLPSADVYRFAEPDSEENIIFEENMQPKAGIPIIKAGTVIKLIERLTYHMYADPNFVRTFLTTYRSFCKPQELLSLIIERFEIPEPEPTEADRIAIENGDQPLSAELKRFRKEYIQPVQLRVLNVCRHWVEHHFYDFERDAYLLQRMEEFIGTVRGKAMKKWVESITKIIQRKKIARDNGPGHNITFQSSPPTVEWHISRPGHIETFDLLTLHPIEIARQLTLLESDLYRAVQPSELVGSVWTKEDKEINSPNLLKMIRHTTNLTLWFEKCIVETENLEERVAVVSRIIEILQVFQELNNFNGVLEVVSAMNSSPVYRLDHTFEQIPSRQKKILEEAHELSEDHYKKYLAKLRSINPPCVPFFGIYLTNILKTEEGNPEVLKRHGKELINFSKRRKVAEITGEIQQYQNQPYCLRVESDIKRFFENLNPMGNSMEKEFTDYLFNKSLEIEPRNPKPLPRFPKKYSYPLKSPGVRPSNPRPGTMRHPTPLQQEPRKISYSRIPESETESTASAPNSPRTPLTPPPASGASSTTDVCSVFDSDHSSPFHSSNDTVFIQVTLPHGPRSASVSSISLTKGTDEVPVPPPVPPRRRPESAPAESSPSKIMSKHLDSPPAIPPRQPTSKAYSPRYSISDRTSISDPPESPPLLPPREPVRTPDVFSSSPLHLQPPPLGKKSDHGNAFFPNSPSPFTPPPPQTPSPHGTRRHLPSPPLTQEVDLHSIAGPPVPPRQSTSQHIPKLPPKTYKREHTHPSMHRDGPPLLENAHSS
Kind of assay: SOS-mediated nucleotide exchange on Ras (BODIPY-GDP fluorescence). It counts as biochemical. To be noted: Ras loaded with BODIPY-GDP, GTP and SOS added; EC50 from derived exchange rates. The method in brief: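 Compound, then GTP and SOS, were added to buffered Ras preloaded with BODIPY-GDP, and the fluorescence change from labeled GDP being exchanged for GTP was followed over time. Rates came from single-exponential fits, and EC50 from a four-parameter fit of mean rate against compound concentration.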

In assay [3] the target is T2, Son of Sevenless (SOS) (Homo sapiens, UniProt Q07889).
T2 sequence (Q07889 564-1049 limits assumed): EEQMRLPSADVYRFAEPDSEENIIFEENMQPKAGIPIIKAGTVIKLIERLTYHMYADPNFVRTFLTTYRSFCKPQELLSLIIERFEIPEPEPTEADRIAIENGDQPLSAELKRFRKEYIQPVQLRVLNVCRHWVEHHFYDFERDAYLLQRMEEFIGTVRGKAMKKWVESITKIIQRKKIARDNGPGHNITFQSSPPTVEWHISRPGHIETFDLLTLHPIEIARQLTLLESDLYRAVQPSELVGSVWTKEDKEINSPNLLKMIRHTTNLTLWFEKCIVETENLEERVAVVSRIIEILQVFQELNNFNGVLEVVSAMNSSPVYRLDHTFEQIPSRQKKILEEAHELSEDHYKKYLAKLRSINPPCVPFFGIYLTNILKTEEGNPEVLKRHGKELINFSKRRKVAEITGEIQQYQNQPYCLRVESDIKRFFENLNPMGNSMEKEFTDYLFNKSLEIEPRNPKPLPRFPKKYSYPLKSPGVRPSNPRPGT
As to the kind of experiment: Binding to SOS, fluorescence polarization anisotropy (FPA) displacement of FITC-conjugated probe. Particulars: binding affinity calculated from IC50 of FITC-probe displacement, read-out: Binding affinities (binding affinity to SOS). The method in brief:
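FITC-labelled probe incubated with SOS in buffer; displacement by test compound across a dose range read as fluorescence anisotropy change. IC50 from four-parameter variable-slope fit, binding affinity calculated from IC50.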

pEC50, pIC50, pKi: −log10 of the molar value. Bounds are passed on as bounds.

Regarding `C[C@@H](Nc1nc(Nc2ccc(F)c(Cl)c2)nc2ccccc12)C1CC1` [Example 1, (R)—N^2-(3-chloro-4-fluorophenyl)-N^4-(1-cyclopropylethyl)quinazoline-2,4-diamine], the pIC50 in assay [1] is 5.30 to 6.00. In assay [2], this compound gave a pEC50 of 4.52 to 5.30.
`C[C@@H](Nc1nc(NCC2CCCCCC2)nc2ccccc12)C1CC1` [Example 5, (R)—N^2-(cycloheptylmethyl)-N^4-(1-cyclopropylethyl)quinazoline-2,4-diamine]: the pIC50 in assay [1] is 5.30 to 6.00. Further, in assay [2], the negative logarithm of the EC50 (pEC50) is 4.52 to 5.30. In assay [3], the pKi was less than 5.30.
Turning to `Fc1cc(F)cc(Nc2nc(NCc3ncc[nH]3)c3ccccc3n2)c1` [Example 22, N^4-((1H-imidazol-2-yl)methyl)-N^2-(3,5-difluorophenyl)quinazoline-2,4-diamine], the pIC50 in assay [1] is less than 4.70. The compound also had a pEC50 in assay [2] of less than 4.52. The pKi in assay [3] was less than 5.30.
On the same counts, the results for `CC[C@@H](Nc1nc(Nc2ccc(F)c(Cl)c2)nc2ccccc12)c1cccs1` [Example 39, (R)—N^2-(3-chloro-4-fluorophenyl)-N^4-(1-(thiophen-2-yl)propyl)quinazoline-2,4-diamine] are 4.70 to 5.30, 5.30 to 6.00 and less than 5.30.
Consider `CC[C@@H](Nc1nc(Nc2ccc(F)c(Cl)c2)nc2c(CCN)cccc12)C1CC1` [Example 50, (R)-8-(2-aminoethyl)-N^2-(3-chloro-4-fluorophenyl)-N^4-(1-cyclopropylpropyl)quinazoline-2,4-diamine], for which the pIC50 in assay [1] was 5.30 to 6.00. The compound also showed a pEC50 in assay [2] of 5.30 to 6.00.
Consider `CC[C@@H](Nc1nc(Nc2ccc(F)c(Cl)c2)nc2c(C3=CCNCC3)cccc12)C1CC1` [Example 51, (R)—N^2-(3-chloro-4-fluorophenyl)-N^4-(1-cyclopropylpropyl)-8-(1,2,3,6-tetrahydropyridin-4-yl)quinazoline-2,4-diamine], for which the pIC50 in assay [1] was greater than 6.00. This compound had a pEC50 in assay [2] of 5.30 to 6.00. Also, the pKi in assay [3] is greater than 6.00.
As to `C[C@@H](Nc1nc(Nc2ccc(F)c(Cl)c2)nc2c(C(=N)N)cccc12)C1CC1` [Example 57, (R)-2-((3-chloro-4-fluorophenyl)amino)-4-((1-cyclopropylethyl)amino)quinazoline-8-carboximidamide], the pIC50 in assay [1] is 5.30 to 6.00. For the same compound, the pEC50 in assay [2] is 5.30 to 6.00. Besides, in assay [3], the pKi is less than 5.30.
Consider `CNCc1cccc2c(N[C@H](C)C3CC3)nc(Nc3ccc(F)c(Cl)c3)nc12` [Example 58, (R)—N^2-(3-chloro-4-fluorophenyl)-N^4-(1-cyclopropylethyl)-8-((methylamino)methyl)quinazoline-2,4-diamine], for which, in assay [1], the pIC50 was 5.30 to 6.00. Moreover, the pEC50 in assay [2] was 4.52 to 5.30. Further, the pKi in assay [3] was less than 5.30.
Regarding `C[C@@H](Nc1nc(Nc2ccc(F)c(Cl)c2)nc2c(CNC(=N)N)cccc12)C1CC1` [Example 59, (R)-1-((2-((3-chloro-4-fluorophenyl)amino)-4-((1-cyclopropylethyl)amino)quinazolin-8-yl)methyl)guanidine], in assay [1], the pIC50 was 4.70 to 5.30. In assay [2], this compound had a negative logarithm of the EC50 (pEC50) of 4.52 to 5.30. Moreover, in assay [3], the pKi is less than 5.30.
For `CC[C@@H](Nc1nc(Nc2ccc(F)c(Cl)c2)nc2c(N3CCNCC3)cccc12)C1CC1` [Example 64, (R)—N^2-(3-chloro-4-fluorophenyl)-N^4-(1-cyclopropylpropyl)-8-(piperazin-1-yl)quinazoline-2,4-diamine], in that order: greater than 6.00, 5.30 to 6.00 and 5.30 to 6.00.
With `CC[C@@H](Nc1nc(Nc2ccc(F)c(Cl)c2)nc2c(CN)cccc12)C1CC1` [Example 68, (R)-8-(aminomethyl)-N^2-(3-chloro-4-fluorophenyl)-N^4-(1-cyclopropylpropyl)quinazoline-2,4-diamine], the pIC50 in assay [1] was 5.30 to 6.00. In assay [2], this compound showed a pEC50 of 5.30 to 6.00. Further, in assay [3], the pKi is less than 5.30.
In the case of `C[C@@H](Nc1nc(Oc2ccc(F)c(Cl)c2)nc2c(C3=CCNCC3)cccc12)C1CC1` [Example 69, (R)-2-(3-chloro-4-fluorophenoxy)-N-(1-cyclopropylethyl)-8-(1,2,3,6-tetrahydropyridin-4-yl)quinazolin-4-amine], the pIC50 in assay [1] is 5.30 to 6.00. Also, in assay [2], the pEC50 was less than 4.52. Further, the pKi in assay [3] was less than 5.30.
For `C[C@@H](Nc1nc(Nc2cc[nH]n2)nc2c(C3=CCNCC3)cccc12)C1CC1` [Example 70, (R)—N^4-(1-cyclopropylethyl)-N^2-(1H-pyrazol-3-yl)-8-(1,2,3,6-tetrahydropyridin-4-yl)quinazoline-2,4-diamine], in that order: 4.70 to 5.30, less than 4.52 and less than 5.30.
On the same counts, the results for `C[C@@H](Nc1nc(Nc2ccn(C)n2)nc2c(C3=CCNCC3)cccc12)C1CC1` [Example 71, (R)—N^4-(1-cyclopropylethyl)-N^2-(1-methyl-1H-pyrazol-3-yl)-8-(1,2,3,6-tetrahydropyridin-4-yl)quinazoline-2,4-diamine] are 5.30 to 6.00, 4.52 to 5.30 and less than 5.30.
Regarding `CC[C@@H](Nc1nc(Nc2ccc(F)c(Cl)c2)nc2c(C3=CCNCC3)cccc12)c1cccs1` [Example 100, (R)—N^2-(3-chloro-4-fluorophenyl)-8-(1,2,3,6-tetrahydropyridin-4-yl)-N^4-(1-(thiophen-2-yl)propyl)quinazoline-2,4-diamine], the pIC50 in assay [1] was greater than 6.00. The compound further gave a pEC50 in assay [2] of 4.52 to 5.30.
On the same counts, the results for `C[C@@H](Nc1nc(Nc2cc(F)cc(F)c2)nc2ccc(CCN)cc12)C1CC1` [Example 109, (R)-6-(2-aminoethyl)-N^4-(1-cyclopropylethyl)-N^2-(3,5-difluorophenyl)quinazoline-2,4-diamine] are greater than 6.00 and 5.30 to 6.00.
For `C[C@@H](Nc1nc(Cc2cc(F)cc(F)c2)nc2ccccc12)C1CC1` [Example 110, (R)—N-(1-cyclopropylethyl)-2-(3,5-difluorobenzyl)quinazolin-4-amine], in that order: 4.70 to 5.30 and 4.52 to 5.30.

In general, pEC50 refers to the negative decadic logarithm of the EC50, by convention in mol/L. Higher therefore signals a small EC50.
